{"source": "ChEMBL document CHEMBL3132769", "about": "“Fragment growing to retain or alter the selectivity of anchored kinase hinge-binding fragments” (Medchemcomm, 2014)", "key": {"[1]": {"biological_target": "T1, Serine/threonine-protein kinase D3 (Homo sapiens) (UniProt O94806)", "T1 sequence (whole entry)": "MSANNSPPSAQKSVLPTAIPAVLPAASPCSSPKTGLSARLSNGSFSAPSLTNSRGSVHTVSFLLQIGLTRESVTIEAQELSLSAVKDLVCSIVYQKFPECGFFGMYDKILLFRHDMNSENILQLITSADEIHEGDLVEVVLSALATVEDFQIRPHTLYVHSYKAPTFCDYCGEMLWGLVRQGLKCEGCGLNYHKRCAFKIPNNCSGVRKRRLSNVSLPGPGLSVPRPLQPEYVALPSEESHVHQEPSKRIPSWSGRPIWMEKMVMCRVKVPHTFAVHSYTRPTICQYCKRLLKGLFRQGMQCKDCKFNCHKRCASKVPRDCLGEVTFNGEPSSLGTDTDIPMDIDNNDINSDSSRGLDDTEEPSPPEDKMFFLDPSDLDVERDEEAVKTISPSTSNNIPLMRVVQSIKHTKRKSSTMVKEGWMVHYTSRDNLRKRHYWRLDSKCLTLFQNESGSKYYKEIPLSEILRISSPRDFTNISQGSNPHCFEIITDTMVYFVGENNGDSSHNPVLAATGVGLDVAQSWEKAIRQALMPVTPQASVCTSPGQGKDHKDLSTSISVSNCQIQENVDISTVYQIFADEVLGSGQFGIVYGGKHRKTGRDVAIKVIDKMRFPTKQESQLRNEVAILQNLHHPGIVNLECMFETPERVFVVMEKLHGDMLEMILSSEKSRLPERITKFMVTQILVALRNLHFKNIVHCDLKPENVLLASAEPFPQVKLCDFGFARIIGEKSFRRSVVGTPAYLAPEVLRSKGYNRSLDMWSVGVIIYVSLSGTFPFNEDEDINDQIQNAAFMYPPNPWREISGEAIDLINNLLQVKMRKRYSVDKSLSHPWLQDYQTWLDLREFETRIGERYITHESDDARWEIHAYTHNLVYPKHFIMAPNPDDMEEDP", "test": "Inhibition of human full length PKD3 expressed in baculovirus assessed as substrate phosphorylation using fluorescence-labelled peptides as substrate at 0.06 uM after 90 mins by microfluidic peptide phosphorylation assay"}, "[2]": {"biological_target": "T2, Serine/threonine-protein kinase BRSK1 (Homo sapiens) (UniProt Q8TDC3)", "T2 sequence (whole entry)": "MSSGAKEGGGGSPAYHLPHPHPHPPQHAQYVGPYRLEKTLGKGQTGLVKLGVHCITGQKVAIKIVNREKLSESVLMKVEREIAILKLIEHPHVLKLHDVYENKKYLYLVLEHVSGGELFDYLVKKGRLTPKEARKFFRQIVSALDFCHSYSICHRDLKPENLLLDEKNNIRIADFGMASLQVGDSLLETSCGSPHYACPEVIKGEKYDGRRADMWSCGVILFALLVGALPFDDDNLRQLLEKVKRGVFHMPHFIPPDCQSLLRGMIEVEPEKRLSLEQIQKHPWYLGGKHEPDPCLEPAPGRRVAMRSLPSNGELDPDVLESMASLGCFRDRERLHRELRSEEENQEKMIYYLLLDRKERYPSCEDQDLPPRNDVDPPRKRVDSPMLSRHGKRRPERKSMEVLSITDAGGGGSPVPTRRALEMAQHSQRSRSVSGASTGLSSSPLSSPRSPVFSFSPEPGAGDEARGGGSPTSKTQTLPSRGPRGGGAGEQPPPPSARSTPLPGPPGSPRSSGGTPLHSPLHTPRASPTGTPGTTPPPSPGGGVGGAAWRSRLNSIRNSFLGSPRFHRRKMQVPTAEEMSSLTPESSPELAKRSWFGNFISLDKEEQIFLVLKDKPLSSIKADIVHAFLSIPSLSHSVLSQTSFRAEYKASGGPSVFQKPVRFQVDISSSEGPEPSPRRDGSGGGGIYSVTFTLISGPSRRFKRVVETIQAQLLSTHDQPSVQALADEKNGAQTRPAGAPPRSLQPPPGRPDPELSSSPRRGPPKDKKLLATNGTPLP", "test": "Inhibition of human full length BRSK1 expressed in baculovirus assessed as substrate phosphorylation using fluorescence-labelled peptides as substrate at 0.06 uM after 90 mins by microfluidic peptide phosphorylation assay"}, "[3]": {"biological_target": "T3, Protein kinase C zeta type (Homo sapiens) (UniProt Q05513)", "T3 sequence (whole entry)": "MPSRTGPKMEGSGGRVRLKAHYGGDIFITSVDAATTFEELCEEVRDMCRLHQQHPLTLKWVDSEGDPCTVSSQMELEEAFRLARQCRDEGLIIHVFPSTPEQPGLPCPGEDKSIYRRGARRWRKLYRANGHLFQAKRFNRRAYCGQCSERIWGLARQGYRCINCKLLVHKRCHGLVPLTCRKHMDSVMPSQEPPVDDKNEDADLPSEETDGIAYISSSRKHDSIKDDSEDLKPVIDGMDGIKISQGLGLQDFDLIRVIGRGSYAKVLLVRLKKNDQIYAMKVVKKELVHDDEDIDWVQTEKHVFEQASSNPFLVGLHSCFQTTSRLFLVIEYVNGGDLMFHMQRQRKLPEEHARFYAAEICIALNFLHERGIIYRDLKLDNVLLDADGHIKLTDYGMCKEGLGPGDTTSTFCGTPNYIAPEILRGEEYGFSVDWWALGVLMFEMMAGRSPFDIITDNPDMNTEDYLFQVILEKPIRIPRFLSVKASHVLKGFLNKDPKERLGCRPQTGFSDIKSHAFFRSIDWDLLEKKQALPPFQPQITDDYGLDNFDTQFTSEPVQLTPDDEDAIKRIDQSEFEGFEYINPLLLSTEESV", "test": "Inhibition of human full length PKC zeta expressed in baculovirus assessed as substrate phosphorylation using fluorescence-labelled peptides as substrate at 0.2 uM after 90 mins by microfluidic peptide phosphorylation assay"}, "[4]": {"biological_target": "Tyrosine-protein kinase Lck (Homo sapiens) (UniProt P06239)", "sequence (P06239 2-509 limits assumed)": "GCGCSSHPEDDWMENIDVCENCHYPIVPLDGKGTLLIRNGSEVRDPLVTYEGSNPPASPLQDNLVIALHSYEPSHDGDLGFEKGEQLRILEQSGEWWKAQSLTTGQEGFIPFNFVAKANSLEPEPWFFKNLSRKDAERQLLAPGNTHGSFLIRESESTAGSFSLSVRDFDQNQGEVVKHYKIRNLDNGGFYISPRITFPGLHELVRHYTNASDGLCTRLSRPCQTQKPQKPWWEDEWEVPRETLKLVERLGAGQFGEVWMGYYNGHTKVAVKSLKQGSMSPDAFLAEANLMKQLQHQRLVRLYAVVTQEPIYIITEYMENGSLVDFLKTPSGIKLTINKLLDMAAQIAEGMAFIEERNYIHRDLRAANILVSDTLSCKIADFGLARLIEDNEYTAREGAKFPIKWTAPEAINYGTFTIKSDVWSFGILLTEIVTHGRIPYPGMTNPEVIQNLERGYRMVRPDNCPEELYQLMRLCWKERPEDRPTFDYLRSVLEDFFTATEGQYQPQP", "test": "Inhibition of human full length LCK expressed in baculovirus assessed as substrate phosphorylation using fluorescence-labelled peptides as substrate at […] after 90 mins by microfluidic peptide phosphorylation assay"}, "[5]": {"biological_target": "MAP kinase-activated protein kinase 3 (Homo sapiens) (UniProt Q16644)", "sequence (Q16644 whole entry, looked up)": "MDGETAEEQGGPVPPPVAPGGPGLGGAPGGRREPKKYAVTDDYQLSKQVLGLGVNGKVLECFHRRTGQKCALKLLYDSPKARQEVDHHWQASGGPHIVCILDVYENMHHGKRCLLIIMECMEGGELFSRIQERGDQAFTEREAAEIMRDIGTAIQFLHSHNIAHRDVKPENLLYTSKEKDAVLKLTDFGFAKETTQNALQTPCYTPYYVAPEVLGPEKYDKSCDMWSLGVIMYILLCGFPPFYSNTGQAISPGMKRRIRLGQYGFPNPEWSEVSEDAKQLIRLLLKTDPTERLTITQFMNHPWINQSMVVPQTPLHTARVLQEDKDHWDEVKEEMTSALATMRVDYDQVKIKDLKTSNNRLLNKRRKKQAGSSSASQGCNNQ", "conditions": "0.1 uM", "description": "Inhibition of human full length MAPKAPK3 expressed in Escherichia coli cell assessed as substrate phosphorylation using fluorescence-labelled peptides as substrate at 0.1 uM after 90 mins by microfluidic peptide phosphorylation assay"}, "[6]": {"biological_target": "Serine/threonine-protein kinase pim-1 (Homo sapiens) (UniProt P11309)", "sequence (P11309 whole entry, looked up)": "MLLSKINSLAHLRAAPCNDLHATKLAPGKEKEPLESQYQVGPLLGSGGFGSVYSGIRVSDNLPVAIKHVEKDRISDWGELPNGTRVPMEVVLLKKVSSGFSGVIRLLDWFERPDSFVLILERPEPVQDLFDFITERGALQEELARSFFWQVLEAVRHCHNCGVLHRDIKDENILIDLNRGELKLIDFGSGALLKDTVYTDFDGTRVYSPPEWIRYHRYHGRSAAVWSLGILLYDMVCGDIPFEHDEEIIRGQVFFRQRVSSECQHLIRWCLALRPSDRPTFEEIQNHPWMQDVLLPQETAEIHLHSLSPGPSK", "test": "Inhibition of human full length PIM1 expressed in baculovirus assessed as substrate phosphorylation using fluorescence-labelled peptides as substrate at 70 uM after 90 mins by microfluidic peptide phosphorylation assay"}, "[7]": {"biological_target": "MAP kinase-activated protein kinase 3 (Homo sapiens) (UniProt Q16644)", "test": "Inhibition of human full length MAPKAPK3 expressed in Escherichia coli cell assessed as substrate phosphorylation using fluorescence-labelled peptides as substrate at 8 uM after 90 mins by microfluidic peptide phosphorylation assay"}}}
{"smiles": "NC1(Cc2ccc(Cl)cc2)CCN(c2ncnc3[nH]ccc23)CC1", "values": [{"measurement": "inhibition", "setting": "[1]", "value": 0, "unit": "%"}, {"measurement": "inhibition", "setting": "[2]", "value": 0, "unit": "%"}]}
{"smiles": "Clc1ccc(C2(c3ccc(-c4ncnc5[nH]cnc45)cc3)CCNCC2)cc1", "values": [{"measurement": "inhibition", "setting": "[3]", "value": 1, "unit": "%"}]}
{"smiles": "COC(=O)c1cnc(Nc2cnc(C#N)cn2)cc1NCC1CCNCC1", "values": [{"measurement": "inhibition", "setting": "[4]", "value": 5.5, "unit": "%"}]}
{"smiles": "C[C@H](CN(C)C)Oc1nc(Nc2cc3cccc(Cl)c3cn2)cnc1C#N", "values": [{"measurement": "inhibition", "setting": "[5]", "value": 0, "unit": "%"}]}
{"smiles": "CNCc1ccc(-c2ncnc3[nH]cnc23)cc1", "values": [{"measurement": "inhibition", "setting": "[6]", "value": 26, "unit": "%"}]}
{"smiles": "NCC1CCN(c2ncnc3[nH]ccc23)CC1", "values": [{"measurement": "inhibition", "setting": "[7]", "value": 81.5, "unit": "%"}]}
